Experimental findings from paper PMC11286772, “Structural basis of antagonist selectivity in endothelin receptors” (Cell Discovery, 2024) are described below.

Residue numbers refer to the chain shown, from its start. Like-named read-outs stand apart in the source and are kept apart here.

Holding throughout (assay type): cell-based
One experiment concerns the target T1, ETB H150^2.53Y (Homo sapiens, UniProt P24530, H150Y).
T1 construct: expressed in transfected cells; host or cells: CHO-K1
T1 sequence (P24530 27-442 H150Y): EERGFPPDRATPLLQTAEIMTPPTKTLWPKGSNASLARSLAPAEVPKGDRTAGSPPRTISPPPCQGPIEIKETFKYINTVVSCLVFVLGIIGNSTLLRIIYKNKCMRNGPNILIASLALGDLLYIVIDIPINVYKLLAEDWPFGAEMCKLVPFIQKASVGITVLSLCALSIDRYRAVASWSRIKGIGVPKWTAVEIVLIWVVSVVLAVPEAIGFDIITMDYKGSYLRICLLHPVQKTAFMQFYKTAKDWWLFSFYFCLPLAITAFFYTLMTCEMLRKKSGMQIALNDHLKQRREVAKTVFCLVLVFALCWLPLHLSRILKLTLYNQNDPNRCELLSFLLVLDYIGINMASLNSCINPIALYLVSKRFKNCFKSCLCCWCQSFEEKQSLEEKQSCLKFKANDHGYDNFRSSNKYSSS
As to the kind of experiment: Calcium mobilization assay, antagonist mode. On the procedure:
(§1) CHO-K1 cells were cultured in Ham’s F-12K (Kaighn’s) Medium (Gibco-Thermo Fisher Scientific) supplemented with 10% (v/v) fetal bovine serum (FBS; Gibco-Thermo Fisher Scientific), and 100 U/mL Penicillin-Streptomycin (Gibco-Thermo Fisher Scientific) in a humidified incubator at 37 °C with 5% CO2. Cells were seeded in 6-cm dishes overnight; when the density reached 60%–80%, the cells were transferred to F12K Medium supplemented with 10% FBS and transfected with 1.5 μg DNA encoding the ETA WT or mutants or 3 μg DNA encoding the ETB WT or mutants using TransIT2020 (Mirus Biosciences). The next day, transfected cells were harvested from the plate using Versene buffer (Gibco-Thermo Fisher Scientific) and seeded into black-sided, clear-bottomed 384-well plates (Agilent) at a density of 1,5000 cells per well. After 20 h, the 1% dFBS medium was removed, and cells were loaded with 20 μL/well of 1× Calcium 6 dye (Molecular Devices) and incubated at 37 °C for 1 h in the dark. […] All data were analyzed using GraphPad Prism 8 and the data are from at least three independent replicate experiments. All plots are shown as means ± SEM. Data were determined using one-way ANOVA followed by Dunnett’s multiple test compared with WT. The top value was normalized to 100% and the bottom value was normalized to 0% for the final presentation. Nonlinear curve fit was performed using a four-parameter logistic equation (log (agonist vs response) or log (inhibitor vs response)).
(In general: A change in cytosolic calcium serves as a functional read-out for many receptors and channels.)

Experiment [1] deals with T2, ETB V177^3.28F+H150^2.53Y (Homo sapiens, UniProt P24530, H150Y/V177F).
T2 construct: expressed in transfected cells; host or cells: CHO-K1
T2 sequence (P24530 27-442 H150Y/V177F): T1 sequence (P24530 27-442 H150Y) with V151F
As to the kind of experiment: Calcium mobilization assay, antagonist mode. Here is the method:
as §1

Another experiment concerns the target T3, ETA Y129^2.53H (Homo sapiens, UniProt P25101, Y129H).
T3 construct: expressed in transfected cells; host or cells: CHO-K1
T3 sequence (P25101 21-427 Y129H): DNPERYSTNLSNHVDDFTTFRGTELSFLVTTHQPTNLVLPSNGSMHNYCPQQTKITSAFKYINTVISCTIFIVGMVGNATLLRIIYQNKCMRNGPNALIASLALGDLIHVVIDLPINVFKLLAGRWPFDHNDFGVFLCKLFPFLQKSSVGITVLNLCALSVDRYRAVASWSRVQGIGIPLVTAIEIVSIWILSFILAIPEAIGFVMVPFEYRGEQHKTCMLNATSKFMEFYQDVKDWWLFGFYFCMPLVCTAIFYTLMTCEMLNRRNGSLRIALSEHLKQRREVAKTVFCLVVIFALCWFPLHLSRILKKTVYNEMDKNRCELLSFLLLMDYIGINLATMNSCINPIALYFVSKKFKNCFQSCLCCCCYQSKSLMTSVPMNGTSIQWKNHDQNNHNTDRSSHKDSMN
As to the kind of experiment: Calcium mobilization assay, antagonist mode. On the procedure:
as §1

A further experiment deals with T4, ETA R326^6.55A (Homo sapiens, UniProt P25101, R326A).
T4 construct: expressed in transfected cells; host or cells: CHO-K1
T4 sequence (P25101 21-427 R326A): T3 sequence (P25101 21-427 Y129H) with H109Y, R306A
As to the kind of experiment: Calcium mobilization assay, antagonist mode. On the procedure: as §1

A further experiment concerns the target T5, ETA Y263^5.46A (Homo sapiens, UniProt P25101, Y263A).
T5 construct: expressed in transfected cells; host or cells: CHO-K1
T5 sequence (P25101 21-427 Y263A): T3 sequence (P25101 21-427 Y129H) with H109Y, Y243A
As to the kind of experiment: Calcium mobilization assay, antagonist mode. On the procedure: as §1

A further experiment has as its target T6, ETA F161^3.28A (Homo sapiens, UniProt P25101, F161A).
T6 construct: expressed in transfected cells; host or cells: CHO-K1
T6 sequence (P25101 21-427 F161A): T3 sequence (P25101 21-427 Y129H) with H109Y, F141A
As to the kind of experiment: Calcium mobilization assay, antagonist mode. Here is the method:
as §1

The target in a further experiment is T7, ETA Y129^2.53A (Homo sapiens, UniProt P25101, Y129A).
T7 construct: expressed in transfected cells; host or cells: CHO-K1
T7 sequence (P25101 21-427 Y129A): T3 sequence (P25101 21-427 Y129H) with H109A
As to the kind of experiment: Calcium mobilization assay, antagonist mode. On the procedure:
as §1

The next experiment has as its target T8, ETA L322^6.51A (Homo sapiens, UniProt P25101, L322A).
T8 construct: expressed in transfected cells; host or cells: CHO-K1
T8 sequence (P25101 21-427 L322A): T3 sequence (P25101 21-427 Y129H) with H109Y, L302A
As to the kind of experiment: Calcium mobilization assay, antagonist mode. Here is the method:
as §1

A further experiment concerns the target T9, ETA Y129^2.53F (Homo sapiens, UniProt P25101, Y129F).
T9 construct: expressed in transfected cells; host or cells: CHO-K1
T9 sequence (P25101 21-427 Y129F): T3 sequence (P25101 21-427 Y129H) with H109F
As to the kind of experiment: Calcium mobilization assay, antagonist mode. Here is the method:
as §1

A further experiment concerns the target T10, ETA L259^5.42A (Homo sapiens, UniProt P25101, L259A).
T10 construct: expressed in transfected cells; host or cells: CHO-K1
T10 sequence (P25101 21-427 L259A): T3 sequence (P25101 21-427 Y129H) with H109Y, L239A
As to the kind of experiment: Calcium mobilization assay, antagonist mode. Here is the method:
as §1

For another experiment, the target named is T11, ETA WT (Homo sapiens, UniProt P25101).
T11 construct: expressed in transfected cells; host or cells: CHO-K1
T11 sequence (P25101 21-427): T3 sequence (P25101 21-427 Y129H) with H109Y
As to the kind of experiment: Calcium mobilization assay, antagonist mode (ET-1 stimulated), CHO-K1 cells. Here is the method: as §1

[2] abbreviates: CHO-K1 cells, n = 5, read-out: IC50, inhibition activity on ETA in calcium mobilization assay.
The mark [3] stands for this setting: read-out: pIC50±S.E.M. (converted).

Consider `COc1nc(C)cnc1NS(=O)(=O)c1cccnc1-c1ccc(-c2nnco2)cc1` [zibotentan], for which the figures for the IC50 (on ETB H150^2.53Y; in experiment [1]) were 56.2 µM and 33.1 µM, respectively.
`COC(c1ccccc1)(c1ccccc1)[C@H](Oc1nc(C)cc(C)n1)C(=O)O` [ambrisentan]: the IC50 at ETA Y129^2.53H was 0.575 µM; at ETA R326^6.55A, 7.94 µM; at ETA Y263^5.46A it was 0.813 µM; on ETA F161^3.28A, 0.0891 µM; at ETA Y129^2.53A it was 0.204 µM; on ETA L322^6.51A it was 0.575 µM. The IC50 on ETA Y129^2.53F was 0.00234 µM; at ETA L259^5.42A it was 15.5 µM; at ETA WT (setting [2]), 0.0006 µM; on ETA WT (setting [3]) it was 0.000389 µM.
As to `CCCNS(=O)(=O)Nc1ncnc(OCCOc2ncc(Br)cn2)c1-c1ccc(Br)cc1` [macitentan, N-[5-(4-bromophenyl)-6-[2-[(5-bromo-2-pyrimidinyl)oxy]ethoxy]-4-pyrimidinyl]-N’-propylsulfamide], the IC50 is 0.891 µM at ETA Y129^2.53H; 0.0363 µM at ETA R326^6.55A; 0.0155 µM on ETA Y263^5.46A; 0.0178 µM on ETA F161^3.28A; 1.02 µM on ETA Y129^2.53A; 0.347 µM at ETA L322^6.51A. Also, the IC50 on ETA Y129^2.53F is 0.0012 µM; at ETA L259^5.42A, 0.234 µM; on ETA WT (setting [2]) it was 0.0013 µM; on ETA WT (setting [3]), 0.00117 µM.
